# Source: US9448243B2, “Weak affinity chromatography” (priority 2013, dated 2016)
# Columns and labels:
# [1] = molecular target: bovine serum albumin (BSA) (Bos taurus, UniProt P02769); assay: Weak affinity chromatography of steroids on BSA columns (columns B, C); type: binding; conditions: for k′ (capacity factor), Column B: 66 mg/g silica; for k′ (capacity factor), Column B / k′ (capacity factor), Column C: 20° C.; for k′ (capacity factor), Column C: 77 mg/g silica
# Procedure: (§1) Four columns were prepared, a blank diol-silica column (column A) having no binding ligands and 3 columns (columns B, C, D) loaded with albumin as the binding ligand. Column B was a silica packed column (7 μm, 300 Å porosity) loaded with 96% purity bovine serum albumin (BSA) at a concentration of 66 mg of BSA per gram of silica. Column C was a silica packed column (7 μm, 300 Å porosity) loaded with 99% purity bovine serum albumin (BSA) at a concentration of 77 mg of BSA per gram of silica. Column D was a silica packed column (7 μm, 300 Å porosity) loaded with 99% purity human serum albumin (HSA) at a concentration of 118 mg of HSA per gram of silica. All four column dimensions were 2.1×50 mm stainless steel. Immobilization of the ligands was performed batchwise with periodate activation. 0.5 g of diol-silica was used with 5 ml of H2O added. The silica was sonicated for 2 minutes, and 0.5 g of periodic acid was added to convert the diol groups to aldehyde-groups. After 2 hours of mixing, the aldehyde-silica was washed with 100 mM phosphate, pH 7.0. 5 ml of the respective ligand in 100 mM phosphate buffer, pH 7.0, was prepared. Ligand concentration was 10 mg/ml. 250 μl NaCNBH3, concentration of 0.1 mg/ml, was added. Coupling time was 40 hours at room temperature (22° C.) on mixing table.
# (§2) The system comprised the columns used in an Agilent 1200-LC-MS system. The steroids were all dissolved in ethanol at a concentration of 0.05 μg/μl. 2 μl samples were run in duplicate. Solvent buffers used included phosphate buffered saline (PBS) at pH 7.4 and 5 mM ammonium-acetate (Am-Ac) salt, pH 6.9. Column temperature was 20° C. with a flow rate of 0.400 ml/min. Detection included the use of UV diode-array detector (DAD) at 237 nm.
# (§3) The columns were tested with the PBS buffer and the Am-Ac listed above. The capacity factor (k′) and dissociation constant (Kd) were determined as set forth in U.S. Pat. No. 4,879,247 issued on Nov. 7, 1989 to Sten Ohlson, which is hereby incorporated by reference in its entirety.
# [2] = molecular target: human serum albumin (HSA) (Homo sapiens, UniProt P02768); assay: Weak affinity chromatography of steroids on HSA column; type: binding; conditions: for Kd: Column D, HSA 99% purity column; for k′ (capacity factor), Column D: HSA 99% purity, 118 mg/g silica, 20° C.
# Procedure: as §1, §2, §3
# [3] = Column B, 5 mM Am-Ac buffer pH 6.9, BSA 96% purity
# [4] = Column B, PBS buffer pH 7.4, BSA 96% purity
# [5] = Column C, 5 mM Am-Ac buffer pH 6.9, BSA 99% purity
# [6] = Column C, PBS buffer pH 7.4, BSA 99% purity
# human serum albumin (HSA), sequence (P02768 25-609): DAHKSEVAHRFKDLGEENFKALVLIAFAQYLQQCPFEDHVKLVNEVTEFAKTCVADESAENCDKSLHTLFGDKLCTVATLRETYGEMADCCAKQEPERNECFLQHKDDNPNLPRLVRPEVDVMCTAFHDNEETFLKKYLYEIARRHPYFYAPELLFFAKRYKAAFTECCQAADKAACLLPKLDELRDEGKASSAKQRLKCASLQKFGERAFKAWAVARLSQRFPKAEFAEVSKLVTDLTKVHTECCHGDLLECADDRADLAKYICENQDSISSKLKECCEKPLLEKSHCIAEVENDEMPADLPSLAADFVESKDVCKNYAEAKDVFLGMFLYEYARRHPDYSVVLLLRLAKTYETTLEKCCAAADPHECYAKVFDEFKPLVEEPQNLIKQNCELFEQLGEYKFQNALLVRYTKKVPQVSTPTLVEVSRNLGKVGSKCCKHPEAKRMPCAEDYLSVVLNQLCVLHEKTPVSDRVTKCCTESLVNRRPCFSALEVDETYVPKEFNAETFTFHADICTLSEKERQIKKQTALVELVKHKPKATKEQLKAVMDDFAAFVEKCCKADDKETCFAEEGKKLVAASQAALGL
# bovine serum albumin (BSA), sequence (P02769 25-607): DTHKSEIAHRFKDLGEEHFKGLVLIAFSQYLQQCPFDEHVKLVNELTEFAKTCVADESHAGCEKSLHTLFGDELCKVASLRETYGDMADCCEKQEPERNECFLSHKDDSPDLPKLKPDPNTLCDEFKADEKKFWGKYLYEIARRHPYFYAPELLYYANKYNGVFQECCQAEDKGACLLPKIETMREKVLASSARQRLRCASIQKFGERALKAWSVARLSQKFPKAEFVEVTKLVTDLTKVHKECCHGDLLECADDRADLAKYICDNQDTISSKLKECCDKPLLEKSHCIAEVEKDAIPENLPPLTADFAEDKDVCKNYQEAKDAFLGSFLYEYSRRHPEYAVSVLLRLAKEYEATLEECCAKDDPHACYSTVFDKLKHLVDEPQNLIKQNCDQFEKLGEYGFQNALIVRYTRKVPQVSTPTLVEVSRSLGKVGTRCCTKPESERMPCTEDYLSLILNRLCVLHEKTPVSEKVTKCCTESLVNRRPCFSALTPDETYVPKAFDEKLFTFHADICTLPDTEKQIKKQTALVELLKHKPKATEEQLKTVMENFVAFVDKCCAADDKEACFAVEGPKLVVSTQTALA
"k′ (capacity factor), Column B ([1]; 5 mM Am-Ac buffer pH 6.9, BSA 96% purity)","k′ (capacity factor), Column C ([1]; 5 mM Am-Ac buffer pH 6.9, BSA 99% purity)","k′ (capacity factor), Column B ([1]; PBS buffer pH 7.4, BSA 96% purity)","k′ (capacity factor), Column C ([1]; PBS buffer pH 7.4, BSA 99% purity)","k′ (capacity factor), Column D ([2]; 5 mM Am-Ac buffer pH 6.9)","k′ (capacity factor), Column D ([2]; PBS buffer pH 7.4)",SMILES,"Kd [1, 3]","Kd [1, 4]","Kd [1, 5]","Kd [1, 6]",Kd ([2]; 5 mM Am-Ac buffer pH 6.9),Kd ([2]; PBS buffer pH 7.4)
,,,,,,"C[C@]12C=CC(=O)C=C1CC[C@@H]1[C@@H]2[C@@H](O)C[C@@]2(C)[C@H]1CC[C@]2(O)C(=O)CO [Prednisolone, prednisolone]",257 µM,230 µM,227 µM,216 µM,596 µM,602 µM
1.01,1.17,1.07,1.23,1.78,1.74,"C[C@]12C=CC(=O)C=C1CC[C@@H]1[C@@H]2C(=O)C[C@@]2(C)[C@H]1CC[C@]2(O)C(=O)CO [Prednisone, prednisone]",288 µM,274 µM,260 µM,250 µM,523 µM,516 µM
